Experimental data taken from patent US9475805B2, “Tricyclic compound” (Kyowa Hakko Kirin Co., Ltd., priority 2008, dated 2016).

Target: T1, PPAR γ (Homo sapiens, UniProt P37231)
T1 construct: expressed in transfected cells; host or cells: HEK293EBNA
T1 sequence (P37231 174-475 isoform P37231-2): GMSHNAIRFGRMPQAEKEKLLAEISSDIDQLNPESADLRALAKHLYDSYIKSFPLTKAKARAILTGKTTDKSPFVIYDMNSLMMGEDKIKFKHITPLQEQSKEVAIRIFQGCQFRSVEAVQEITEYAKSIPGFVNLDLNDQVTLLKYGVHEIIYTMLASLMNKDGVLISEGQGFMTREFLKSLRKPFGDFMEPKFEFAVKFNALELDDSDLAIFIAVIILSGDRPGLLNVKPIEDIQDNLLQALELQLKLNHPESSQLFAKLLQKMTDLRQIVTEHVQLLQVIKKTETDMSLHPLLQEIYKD
Assay: PPAR γ activation action based on transactivation assay of PPAR γ by transient gene transfer (GAL4-PPAR γ chimeric receptor, luciferase reporter, HEK293EBNA cells)
Type: cell-based
Details: concentration showing 50% of the compound's own efficacy (maximum activity rate relative to pioglitazone 10 μmol/L = 100%), 24 hr
Experimental: The agonist activity of compound (I) to PPAR γ was determined by a transactivation assay method using a chimeric nuclear receptor of a DNA binding region of a yeast transcription factor GAL4 and a PPAR γ ligand binding region. Specifically, the PPAR γ agonist activity of compound (I) was evaluated by the following method based on the method of Lehmann et al. (J Biol Chem., 1995, vol. 270, page 12953).
HEK293EBNA cells cultured in Dulbecco's Modified Eagle medium (Invitrogen) containing 10 v/v % fetal calf serum (Invitrogen) were used. 30 mL of the above-mentioned cells (density: 1×10^5 cells/mL) were inoculated in a […] (Iwaki Glass), and cultured overnight. Using SuperFect Transfection Reagent (QIAGEN), a plasmid expressing a GAL4-PPAR γ chimeric nuclear receptor fusing 174-475 amino acids, which are human PPAR γ ligand binding region, and 1-147 amino acids, which are GAL4 DNA binding region, and a reporter plasmid expressing a GAL4 responsive luciferase were transiently introduced into the cells at a proportion of 4:1. After 5 hr from transfection, the cells were detached from the culture dish, and the detached cells (density: 2×10^4 cells/mL) were inoculated by 100 μL in each well of a 96 well white plate (SUMITOMO BAKELITE), and cultured overnight. The medium was removed, compound (I) diluted in various concentrations with serum-free Dulbecco's Modified Eagle medium was added by 100 μL, and the mixture was reacted under a 5% carbon dioxide gas stream (5% CO2) at 37° C. for 24 hr. On the other hand, as a positive control, 10 μmol/L of pioglitazone (100 μL) was added, and the mixture was reacted under a 5% carbon dioxide gas stream (5% CO2) at 37° C. for 24 hr. As a substrate of luciferase, 100 μL of Steady-Glo (Promega) was added to each well and the mixture was thoroughly stirred. Immediately thereafter, the chemical luminescence due to luciferase was measured using TopCount NTX (Packard).
The agonist activity (activity rate (%)) of compound (I) to PPAR γ was calculated according to the following formula, as a relative activity when the agonist activity on addition of pioglitazone (10 μmol/L) was 100%.

EC50 | SMILES
20 nM | CCCc1nc2c(C(N)=O)cccc2n1Cc1ccc2c(c1)COc1ccccc1/C2=C(\C)c1noc(=O)[nH]1 [Compound 100, (E)-1-{11-[1-(5-Oxo-4,5-dihydro-1,2,4-oxadiazol-3-yl)ethylidene]-6,11-dihydrodibenzo[b,e]oxepin-8-yl}methyl-2-propylbenzimidazole-4-carboxamide]
36 nM | CCC/C(=C1/c2ccc(Cn3c(CCC)nc4ccccc43)cc2COc2ccccc21)c1noc(=O)[nH]1 [Compound 115, (E)-11-[1-(5-Oxo-4,5-dihydro-1,2,4-oxadiazol-3-yl)butylidene]-8-(2-propylbenzimidazol-1-yl)methyl-6,11-dihydrodibenzo[b,e]oxepine]
12 nM | CCCc1nc2ccccc2n1Cc1ccc2c(c1)COc1ccc(F)cc1/C2=C(\C)c1noc(=O)[nH]1 [Compound 116, (E)-2-Fluoro-8-(2-propylbenzimidazol-1-yl)methyl-11-[1-(5-oxo-4,5-dihydro-1,2,4-oxadiazol-3-yl)ethylidene]-6,11-dihydrodibenzo[b,e]oxepine]
314 nM | C/C(=C1\c2ccccc2OCc2nc(Cn3c(C4CC4)nc4c(Cl)ccnc43)ccc21)c1noc(=O)[nH]1 [Compound 119, (E)-2-(7-Chloro-2-cyclopropyl-3H-imidazo[4,5-b]pyridin-3-yl)methyl-5-[1-(5-oxo-4,5-dihydro-1,2,4-oxadiazol-3-yl)ethylidene]-5,11-dihydrobenzooxepino[3,4-b]pyridine]
